{"source": "patent US4855321A", "about": "“Antihypercholesterolemic compounds” (Merck & Co., Inc., priority 1988, dated 1989)", "system": "HMG-CoA reductase", "assay": "HMG-CoA Reductase Inhibition Assay (in vitro, [14C]HMG-CoA, relative to compactin)", "type": "biochemical, rat (male Holtzman Sprague-Dawley)", "details": "compactin assigned 100; IC50 of test compound compared with that of compactin determined simultaneously; pH 7.2, 40 min, 37° C.; lactone converted in situ to sodium salt of dihydroxy acid", "protocol": "The intrinsic HMG-CoA reductase inhibition activity of the claimed compounds is measured in the in vitro protocol published in J. Med. Chem., 28, p. 347-358 (1985) and described below:\nMale Holtzman Sprague-Dawley rats (225-250 g) were kept on reversed lighting and fed Purina rat chow containing 3% cholestyramine for 7 days preceding their sacrifice by CO2 asphyxiation. Livers were removed 6 hours into the dark cycle and used immediately to prepare microsomes. […]\nTest compounds or compactin (after first being converted to the sodium salt of their dihydroxy acid form in situ by addition of 1N NaOH (1 equivalent) were added to the assay system in 10-μl volumes at multiconcentration levels. After a 40-minute incubation at 37° C. to ensure the complete lactionization of mevalonic acid to mevalonolactone, 0.2 ml of the mixture was added to an 0.5×5.0 cm column containing 100-200 mesh BioRex 5, chloride form (Bio-Rad), wetted with distilled water, as described by Alberts et al., [J. Proc. Natl. Acad. Sci. U.S.A., 1980, 77, 3957]. The unreacted [^14 C]HMG-CoA was absorbed on the resin and the [^14 C] mevalonolactone was eluted with distilled water (2×1 ml) directly into 7-ml scintillation vials. Five milliliters of Aquasol-2 (New England Nuclear) was added to each vial, and radioactivity was measured in a Packard Tri Carb Prias scintillation counter. […]", "data": [{"smiles": "Cc1cc(C)c(/C=C/[C@H]2C[C@H](O)CC(=O)O2)c(-c2ccc(F)c(CO)c2)c1", "note": "(relative stereo) [trans-(E)-6-[2-[4'-fluoro-3'-(hydroxymethyl)-3,5-dimethyl[1,1'-biphenyl]-2-yl]ethenyl]-3,4,5,6-tetrahydro-4-hydroxy-2H-pyran-2-one]", "values": [{"measurement": "relative potency (intrinsic HMG-CoA reductase inhibitory activity) when compared to compactin at 100", "result": 26.5}]}]}
